Values quoted from earlier work in publication PMC8230491 (Pharmaceuticals, 2021).

Settings: KET COOH; protonated LYS γ-NH2; no reference given

NCCCC[C@H](N)C(=O)O [LYS, lysine]
pKa: 10.29
